Assay results taken from ChEMBL document CHEMBL3393020, “Biofilm inhibition of linezolid-like Schiff bases: synthesis, biological activity, molecular docking and in silico ADME prediction” (Bioorg Med Chem Lett, 2015).
Converted amounts (≈) assume the structure as drawn. The source made the active and inactive calls. The rule behind the calls is not given here.

Columns and labels:
Bacillus subtilis = experiment: Antibacterial activity against Bacillus subtilis NCIM-2063 incubated for 24 hrs by two fold serial dilution method; assay type: functional; details: NCIM-2063, 24 h
Escherichia coli = experiment: Antibacterial activity against Escherichia coli NCIM-2256 incubated for 24 hrs by two fold serial dilution method; assay type: functional; details: NCIM-2256, 24 h
Pseudomonas aeruginosa [1] = experiment: Inhibition of biofilm formation of Pseudomonas aeruginosa PAO1 incubated for 18 hrs by crystal violet staining based spectroscopy; assay type: functional, organism-based; details: PAO1, 18 h
Pseudomonas aeruginosa [2] = experiment: Antibacterial activity against Pseudomonas aeruginosa NCIM-2036 incubated for 24 hrs by two fold serial dilution method; assay type: functional; details: NCIM-2036, 24 h
[3] = Retardation factor of the compound; assay type: physicochemical
Pseudomonas aeruginosa [4] = experiment: Effect on planktonic cells growth of Pseudomonas aeruginosa PAO1 incubated for 15 mins by field emission scanning electron microscopy; assay type: organism-based; details: 0.25 h
Pseudomonas aeruginosa [5] = experiment: Inhibition of biofilm formation of Pseudomonas aeruginosa PAO1 incubated for 15 mins by field emission scanning electron microscopy; assay type: functional, organism-based

Compound | MIC (Bacillus subtilis) | MIC (Escherichia coli) | IC50 (Pseudomonas aeruginosa [1]) | MIC (Pseudomonas aeruginosa [2]) | Rf [3] | Activity (Pseudomonas aeruginosa [4]) | inhibition (Pseudomonas aeruginosa [5])
COc1ccc(/C=N/c2ccc(N3CCOCC3)c(F)c2)cc1OC | 20 µg/mL (≈ 58.1 µM) | 20 µg/mL (≈ 58.1 µM) | 27.9 µM | 20 µg/mL (≈ 58.1 µM) | 0.55 | – | –
Oc1ccc(/C=N/c2ccc(N3CCOCC3)c(F)c2)cc1O | 25 µg/mL (≈ 79 µM) | 30 µg/mL (≈ 94.8 µM) | 31.6 µM | 20 µg/mL (≈ 63.2 µM) | 0.59 | – | –
O=C(O)c1cn(C2CC2)c2cc(N3CCNCC3)c(F)cc2c1=O [CIPROFLOXACIN] | – | 25 µg/mL (≈ 75.4 µM) | – | – | – | – | –
Cc1cccc2cc(/C=N/c3ccc(N4CCOCC4)c(F)c3)c(Cl)nc12 | 10 µg/mL (≈ 26.1 µM) | 10 µg/mL (≈ 26.1 µM) | 15.6 µM | 3.5 µg/mL (≈ 9.12 µM) | 0.44 | Non-toxic | Active
Fc1cc(/N=C/c2ccoc2)ccc1N1CCOCC1 | 40 µg/mL (≈ 146 µM) | 35 µg/mL (≈ 128 µM) | 35.9 µM | 30 µg/mL (≈ 109 µM) | 0.61 | – | –
Fc1cc(/N=C/c2c(Cl)cccc2Cl)ccc1N1CCOCC1 | 20 µg/mL (≈ 56.6 µM) | 25 µg/mL (≈ 70.8 µM) | 27.5 µM | 30 µg/mL (≈ 84.9 µM) | 0.48 | – | –
CC(=O)NC[C@H]1CN(c2ccc(N3CCOCC3)c(F)c2)C(=O)O1 [LINEZOLID] | 3 µg/mL (≈ 8.89 µM) | 2 µg/mL (≈ 5.93 µM) | 15.9 µM | 2.5 µg/mL (≈ 7.41 µM) | – | – | –
Fc1cc(/N=C/c2c[nH]c3ccccc23)ccc1N1CCOCC1 | 35 µg/mL (≈ 108 µM) | 40 µg/mL (≈ 124 µM) | 29.1 µM | 25 µg/mL (≈ 77.3 µM) | 0.52 | – | –
Fc1ccc(/C=N/c2ccc(N3CCOCC3)c(F)c2)cc1 | 20 µg/mL (≈ 66.2 µM) | 30 µg/mL (≈ 99.2 µM) | 31.1 µM | 20 µg/mL (≈ 66.2 µM) | 0.52 | – | –
Fc1cc(/N=C/c2ccccc2)ccc1N1CCOCC1 | 30 µg/mL (≈ 106 µM) | 35 µg/mL (≈ 123 µM) | 39.4 µM | 20 µg/mL (≈ 70.3 µM) | 0.64 | – | –
Fc1cc(/N=C/c2cc3ccccc3nc2Cl)ccc1N1CCOCC1 | 5 µg/mL (≈ 13.5 µM) | 10 µg/mL (≈ 27 µM) | 13 µM | 2.5 µg/mL (≈ 6.76 µM) | 0.46 | Non-toxic | Active
